Measured values from patent US10253002B2, “Compounds and methods of treating infections” (Neoculi Pty Ltd., priority 2013, dated 2019).
Several values for one entry are separate records, joined by “and”; a condition that tells them apart may be missing. Equal values may be shown once.

Legend:
[1] = system: Staphylococcus pseudintermedius isolates (MSSP and MRSP); test: Disk diffusion and Epsilometer susceptibility testing, Example 6; type: cell-based
[2] = system: S. aureus isolates (HA-MRSA, CA-MRSA, methicillin-susceptible staphylococci); test: Kirby-Bauer disc diffusion resistotyping, Example 4; type: cell-based, Staphylococcus aureus; details: for Total isolates resistant (Kirby-Bauer disc diffusion): all isolates (n = 30)
Method: Antibiotic-susceptibility profiling of the isolate collection was undertaken using Kirby-Bauer disc diffusion, as recommended by the Clinical and Laboratory Standards Institute (CLSI) on Mueller-Hinton agar. Isolates were grown overnight on SBA at 37° C. Colonies were suspended in physiological saline. Turbidity was adjusted to a 0.5 McFarland standard and suspensions were spread over the medium. Antibiotic discs according to Table 9 below were transferred onto the inoculated medium and analysed after 24 h incubation at 37° C.

S. pneumoniae isolates = test: Disk diffusion susceptibility (CLSI/EUCAST), Example 5; type: cell-based, Streptococcus pneumoniae
Method: Isolate susceptibility to 12 different antimicrobials (Table 16) was determined by CLSI and European Committee on Antimicrobial Susceptibility Testing (EUCAST) methods. Antimicrobials were selected based upon the CLSI and EUCAST guidelines. Standardised bacterial suspensions were spread onto MHSBA using a sterile cotton swab. Bacterial suspensions from of Streptococcus pneumoniae were standardised to an OD6O0 between 0.08 and 0.1 using a spectrophotometer and then diluted 1:20. Bacterial colonies were taken from an O/N horse blood agar plate. To ensure the purity of the 1:20 bacterial suspension, 50 μL was spread plated onto horse blood agar and incubated O/N at 37° C. with 5% CO2. The CFU was calculated and compared to the initial plate counts. Antibiotic disks (Purchased from Sigma Aldrich) were placed using a disk dispenser (Purchased from Oxoid) according to CLSI standards. MHSBA plates were incubated for 16 h-24 h at 37° C. in 5% CO2. Zones of complete inhibition were measured in triplicate to the nearest millimeter using a ruler on natural light-reflected growth, and the mode was represented as the diameter for each isolate. Pneumococcal isolates were categorised as sensitive, intermediate (I) or resistant (R) by CLSI standards and quality control (QC) ranges (Table 16).

[3] = Methicillin-susceptible staphylococci (n = 10)

SMILES: CO[C@@]1(NC(=O)C2SC(=C(C(N)=O)C(=O)O)S2)C(=O)N2C(C(=O)O)=C(CSc3nnnn3C)CS[C@@H]21 (stereo partly shown) [Cefotetan]
- MRSP isolates susceptible ([1]; 13 MRSP isolates): 92%
- isolates resistant (Kirby-Bauer disc diffusion) ([2]; CA-MRSA (n = 10)): 20.00%
- isolates resistant (Kirby-Bauer disc diffusion) ([2]; HA-MRSA (n = 10)): 80.00%
- isolates resistant (Kirby-Bauer disc diffusion) [2, 3]: 0.00%
- resistant isolates, number (percentage) ([2]; Unclassified (n = 2), Overall): 2 (100%)
- Total isolates resistant (Kirby-Bauer disc diffusion) [2]: 33.33%
- resistant isolates, number (percentage) ([2]; mec gene complex A (n = 4), Overall): 4 (100%)
- resistant isolates, number (percentage) ([2]; mec gene complex A (n = 4), SCCmec type II): 3 (100%)
- resistant isolates, number (percentage) ([2]; mec gene complex A (n = 4), SCCmec type III): 1 (100%)
- resistant isolates, number (percentage) ([2]; mec gene complex B (n = 10), Overall): 2 (20%)
- resistant isolates, number (percentage) ([2]; mec gene complex B (n = 10), SCCmec type I): 1 (50%)
- resistant isolates, number (percentage) ([2]; mec gene complex B (n = 10), SCCmec type IV): 1 (12.5%)
- resistant isolates, number (percentage) ([2]; mec gene complex C2 (n = 4), Overall): 2 (50%)
- resistant isolates, number (percentage) ([2]; mec gene complex C2 (n = 4), SCCmec type V): 2 (50%)

SMILES: CC1=C(C(=O)O)N2C(=O)[C@@H](NC(=O)[C@H](N)c3ccccc3)[C@H]2SC1 [Cephalexin]
- isolates resistant (Kirby-Bauer disc diffusion) ([2]; CA-MRSA (n = 10)): 20.00%
- isolates resistant (Kirby-Bauer disc diffusion) ([2]; HA-MRSA (n = 10)): 80.00%
- isolates resistant (Kirby-Bauer disc diffusion) [2, 3]: 10.00%
- Total isolates resistant (Kirby-Bauer disc diffusion) [2]: 40.00%

SMILES: CCC[C@@H]1C[C@@H](C(=O)N[C@@H]([C@H]2O[C@H](SC)[C@H](O)[C@@H](O)[C@H]2O)[C@H](C)Cl)N(C)C1 [Clindamycin]
- isolates resistant (Kirby-Bauer disc diffusion) ([2]; CA-MRSA (n = 10)): 50.00%
- isolates resistant (Kirby-Bauer disc diffusion) ([2]; HA-MRSA (n = 10)): 50.00%
- isolates resistant (Kirby-Bauer disc diffusion) [2, 3]: 30.00%
- Total isolates resistant (Kirby-Bauer disc diffusion) [2]: 43.33%
- Total isolates resistant (Kirby-Bauer disc diffusion) ([2]; listed as clindamycin): 43.33%
- disk diffusion zone diameter (S. pneumoniae isolates; A66.1): 34 mm
- disk diffusion zone diameter (S. pneumoniae isolates; D39): 27 mm
- disk diffusion zone diameter (S. pneumoniae isolates; EF3030): 26 mm
- disk diffusion zone diameter (S. pneumoniae isolates; L82016): 32 mm
- disk diffusion zone diameter (S. pneumoniae isolates; P9): 31 mm
- disk diffusion zone diameter (S. pneumoniae isolates; P21): 25 mm
- disk diffusion zone diameter (S. pneumoniae isolates; TIGR4): 28 mm
- disk diffusion zone diameter (S. pneumoniae isolates; WCH16): 28 mm
- disk diffusion zone diameter (S. pneumoniae isolates; WCH43): 22 mm
- disk diffusion zone diameter (S. pneumoniae isolates; WCH46): 30 mm
- disk diffusion zone diameter (S. pneumoniae isolates; WCH57): 34 mm
- disk diffusion zone diameter (S. pneumoniae isolates; WCH77): 28 mm
- disk diffusion zone diameter (S. pneumoniae isolates; WCH86): 30 mm
- disk diffusion zone diameter (S. pneumoniae isolates; WCH89): 27 mm
- disk diffusion zone diameter (S. pneumoniae isolates; WCH92): 24 mm
- disk diffusion zone diameter (S. pneumoniae isolates; WCH137): 26 mm
- disk diffusion zone diameter (S. pneumoniae isolates; WCH158): 32 mm
- disk diffusion zone diameter (S. pneumoniae isolates; WCH184): 10 mm
- disk diffusion susceptibility category (S. pneumoniae isolates; WCH184 (Table 18)): R
- disk diffusion zone diameter (S. pneumoniae isolates; WCH211): 27 mm
- disk diffusion zone diameter (S. pneumoniae isolates; WU2): 27 mm

SMILES: CC1(C)S[C@@H]2[C@H](NC(=O)Cc3ccccc3)C(=O)N2[C@H]1C(=O)O [Penicillin-G]
- isolates resistant (Kirby-Bauer disc diffusion) ([2]; CA-MRSA (n = 10)): 100.00%
- isolates resistant (Kirby-Bauer disc diffusion) ([2]; HA-MRSA (n = 10)): 100.00%
- isolates resistant (Kirby-Bauer disc diffusion) [2, 3]: 50.00%
- Total isolates resistant (Kirby-Bauer disc diffusion) [2]: 83.33%
- Total isolates resistant (Kirby-Bauer disc diffusion) ([2]; listed as penicillin-G): 83.33%

SMILES: CO[C@H]1/C=C/O[C@@]2(C)Oc3c(C)c(O)c4c(O)c(c(/C=N/N5CCN(C)CC5)c(O)c4c3C2=O)NC(=O)/C(C)=C\C=C\[C@H](C)[C@H](O)[C@@H](C)[C@@H](O)[C@@H](C)[C@H](OC(C)=O)[C@@H]1C [Rifampicin]
- isolates resistant (Kirby-Bauer disc diffusion) ([2]; CA-MRSA (n = 10)): 0.00%
- isolates resistant (Kirby-Bauer disc diffusion) ([2]; HA-MRSA (n = 10)): 10.00%
- isolates resistant (Kirby-Bauer disc diffusion) [2, 3]: 0.00%
- Total isolates resistant (Kirby-Bauer disc diffusion) [2]: 3.33%
- Total isolates resistant (Kirby-Bauer disc diffusion) ([2]; listed as rifampicin): 3.33%
- disk diffusion zone diameter (S. pneumoniae isolates; A66.1): 32 mm
- disk diffusion zone diameter (S. pneumoniae isolates; D39): 28 mm
- disk diffusion zone diameter (S. pneumoniae isolates; EF3030): 32 mm
- disk diffusion zone diameter (S. pneumoniae isolates; L82016): 26 mm
- disk diffusion zone diameter (S. pneumoniae isolates; P9): 27 mm
- disk diffusion zone diameter (S. pneumoniae isolates; P21): 32 mm
- disk diffusion zone diameter (S. pneumoniae isolates; TIGR4): 30 mm
- disk diffusion zone diameter (S. pneumoniae isolates; WCH16): 30 mm
- disk diffusion zone diameter (S. pneumoniae isolates; WCH43): 27 mm
- disk diffusion zone diameter (S. pneumoniae isolates; WCH46): 29 mm
- disk diffusion zone diameter (S. pneumoniae isolates; WCH57): 38 mm
- disk diffusion zone diameter (S. pneumoniae isolates; WCH77): 33 mm
- disk diffusion zone diameter (S. pneumoniae isolates; WCH86): 31 mm
- disk diffusion zone diameter (S. pneumoniae isolates; WCH89): 32 mm
- disk diffusion zone diameter (S. pneumoniae isolates; WCH92): 22 mm
- disk diffusion zone diameter (S. pneumoniae isolates; WCH137): 30 mm
- disk diffusion zone diameter (S. pneumoniae isolates; WCH158): 34 mm
- disk diffusion zone diameter (S. pneumoniae isolates; WCH184): 32 mm
- disk diffusion zone diameter (S. pneumoniae isolates; WCH211): 32 mm
- disk diffusion zone diameter (S. pneumoniae isolates; WU2): 31 mm

SMILES: CO[C@@]1(NC(=O)Cc2cccs2)C(=O)N2C(C(=O)O)=C(COC(N)=O)CS[C@@H]21 [cefoxitin]
- MRSP isolates susceptible ([1]; 13 MRSP, cefoxitin resistance break point set at ≤30 mm): 7.7%
- MRSP isolates susceptible ([1]; 13 MRSP, cefoxitin resistance breakpoint set at ≤24 mm): 23% and 38%
- ZD ([1]; isolate S1P1): 0 mm
- ZD, Adl ([1]; isolate S1P1): 0 mm
- ZD ([1]; isolate S2P2): 21 mm
- ZD, Adl ([1]; isolate S2P2): 21 mm
- ZD ([1]; isolate S3P3): 21 mm
- ZD, Adl ([1]; isolate S3P3): 24 mm
- ZD ([1]; isolate S4P4): 29 mm
- ZD, Adl ([1]; isolate S4P4): 20 mm
- ZD ([1]; isolate S5P5): 26 mm
- ZD, Adl ([1]; isolate S5P5): 30 mm
- ZD ([1]; isolate S6P6): 22 mm
- ZD, Adl ([1]; isolate S6P6): 26 mm
- ZD ([1]; isolate S7P7): 21 mm
- ZD, Adl ([1]; isolate S7P7): 19 mm
- ZD ([1]; isolate S8P8): 21 mm
- ZD, Adl ([1]; isolate S8P8): 22 mm
- ZD ([1]; isolate S9P9): 23 mm
- ZD, Adl ([1]; isolate S9P9): 26 mm
- ZD ([1]; isolate S10P10): 21 mm
- ZD, Adl ([1]; isolate S10P10): 25 mm
- ZD ([1]; isolate S11P11): 22 mm
- ZD, Adl ([1]; isolate S11P11): 21 mm
- ZD ([1]; isolate S12P12): 24 mm
- ZD, Adl ([1]; isolate S12P12): 24 mm
- ZD ([1]; isolate S13P13): 36 mm
- ZD, Adl ([1]; isolate S13P13): 40 mm
- ZD ([1]; isolate S14P14): 34 mm
- ZD, Adl ([1]; isolate S14P14): 32 mm
- ZD ([1]; isolate S15P15): 33 mm
- ZD, Adl ([1]; isolate S15P15): 34 mm
- ZD ([1]; isolate S16P16): 38 mm
- ZD, Adl ([1]; isolate S16P16): 42 mm
- ZD ([1]; isolate S17P17): 36 mm
- ZD, Adl ([1]; isolate S17P17): 38 mm
- ZD ([1]; isolate S18P18): 25 mm
- ZD, Adl ([1]; isolate S18P18): 40 mm
- ZD ([1]; isolate S19P19): 36 mm
- ZD, Adl ([1]; isolate S19P19): 38 mm
- ZD ([1]; isolate S20P20): 38 mm
- ZD, Adl ([1]; isolate S20P20): 36 mm
- ZD ([1]; isolate S21P21): 36 mm
- ZD, Adl ([1]; isolate S21P21): 40 mm
- ZD ([1]; isolate S22P22): 34 mm
- ZD, Adl ([1]; isolate S22P22): 35 mm
- ZD ([1]; isolate S23P23): 29 mm
- ZD, Adl ([1]; isolate S23P23): 26 mm

SMILES: CC(=O)OCC1=C(C(=O)O)N2C(=O)[C@@H](NC(=O)Cc3cccs3)[C@H]2SC1 [cephalothin]
- MRSP isolates susceptible ([1]; 13 MRSP isolates): 62%

SMILES: COc1c(N2C[C@@H]3CCCN[C@@H]3C2)c(F)cc2c(=O)c(C(=O)O)cn(C3CC3)c12 [moxifloxacin]
- MRSP isolates susceptible ([1]; 13 MRSP isolates): 92%
